Experimental data reported in ChEMBL document CHEMBL4368926, “Arylpyridines, arylpyrimidines and related compounds as potential modulator agents of the VEGF, hTERT and c-Myc oncogenes” (Bioorg Med Chem, 2019).
pIC50: −log10 of the molar value.

Experiments:
HT-29 [1] = experiment: Cytotoxicity against human HT-29 cells assessed as decrease in cell viability after 2 days by MTT assay; format: functional, cell-based; settings: HT-29, 48 h
HT-29 [2] = experiment: Down-regulation of c-Myc mRNA expression in human HT-29 cells assessed as c-Myc mRNA level at 20 uM after 48 hrs by RT-qPCR analysis (reference value: 100%); format: functional
HEK293 = experiment: Cytotoxicity against HEK293 cells assessed as decrease in cell viability after 2 days by MTT assay; format: ADME, cell-based; settings: Homo sapiens, HEK293, 48 h
HT-29 [3] = experiment: Down-regulation of c-Myc protein expression in human HT-29 cells assessed as c-Myc protein level at 20 uM after 48 hrs by ELISA (reference value: 100%); format: functional
HT-29 [4] = experiment: Down-regulation of hTERT mRNA expression in human HT-29 cells assessed as hTERT mRNA level at 20 uM after 48 hrs by RT-qPCR analysis (reference value: 100%); format: functional
HT-29 [5] = experiment: Down-regulation of VEGFA protein expression in human HT-29 cells assessed as VEGFA protein level at 20 uM after 48 hrs by ELISA (reference value: 100%); format: functional
MCF7 = experiment: Cytotoxicity against human MCF7 cells assessed as decrease in cell viability after 2 days by MTT assay; format: functional, cell-based; settings: MCF7, 48 h
[6] = Selectivity index, ratio of IC50 for HEK293 cells to IC50 for human MCF7 cells; settings: HEK293 cells versus MCF7 cells
HT-29 [7] = experiment: Down-regulation of VEGFRA mRNA expression in human HT-29 cells assessed as VEGFRA mRNA level at 20 uM after 48 hrs by RT-qPCR analysis (reference value: 100%); format: functional
[8] = Selectivity index, ratio of IC50 for HEK293 cells to IC50 for human HT-29 cells; format: toxicity; settings: HEK293 cells versus HT-29 cells, read-out: Ratio IC50
HT-29 [9] = experiment: Down-regulation of VEGFA protein expression in human HT-29 cells assessed as VEGFA protein level at 100 uM after 48 hrs by ELISA (reference value: 100%); format: functional
HT-29 [10] = experiment: Down-regulation of c-Myc protein expression in human HT-29 cells assessed as c-Myc protein level at 100 uM after 48 hrs by ELISA (reference value: 100%); format: functional
HT-29 [11] = experiment: Down-regulation of hTERT mRNA expression in human HT-29 cells assessed as hTERT mRNA level at 100 uM after 48 hrs by RT-qPCR analysis (reference value: 100%); format: functional
HT-29 [12] = experiment: Down-regulation of c-Myc mRNA expression in human HT-29 cells assessed as c-Myc mRNA level at 100 uM after 48 hrs by RT-qPCR analysis (reference value: 100%); format: functional
HT-29 [13] = experiment: Down-regulation of VEGFRA mRNA expression in human HT-29 cells assessed as VEGFRA mRNA level at 100 uM after 48 hrs by RT-qPCR analysis (reference value: 100%); format: functional
HT-29 [14] = experiment: Down-regulation of VEGFA protein expression in human HT-29 cells assessed as VEGFA protein level at 160 uM after 48 hrs by ELISA (reference value: 100%); format: functional
HT-29 [15] = experiment: Down-regulation of VEGFRA mRNA expression in human HT-29 cells assessed as VEGFRA mRNA level at 160 uM after 48 hrs by RT-qPCR analysis (reference value: 100%); format: functional
HT-29 [16] = experiment: Down-regulation of c-Myc protein expression in human HT-29 cells assessed as c-Myc protein level at 160 uM after 48 hrs by ELISA (reference value: 100%); format: functional
HT-29 [17] = experiment: Down-regulation of c-Myc mRNA expression in human HT-29 cells assessed as c-Myc mRNA level at 160 uM after 48 hrs by RT-qPCR analysis (reference value: 100%); format: functional
HT-29 [18] = experiment: Down-regulation of hTERT mRNA expression in human HT-29 cells assessed as hTERT mRNA level at 160 uM after 48 hrs by RT-qPCR analysis (reference value: 100%); format: functional
HT-29 [19] = experiment: Down-regulation of c-Myc protein expression in human HT-29 cells assessed as c-Myc protein level at 40 uM after 48 hrs by ELISA (reference value: 100%); format: functional
HT-29 [20] = experiment: Down-regulation of VEGFA protein expression in human HT-29 cells assessed as VEGFA protein level at 40 uM after 48 hrs by ELISA (reference value: 100%); format: functional
HT-29 [21] = experiment: Down-regulation of hTERT mRNA expression in human HT-29 cells assessed as hTERT mRNA level at 40 uM after 48 hrs by RT-qPCR analysis (reference value: 100%); format: functional
HT-29 [22] = experiment: Down-regulation of c-Myc mRNA expression in human HT-29 cells assessed as c-Myc mRNA level at 40 uM after 48 hrs by RT-qPCR analysis (reference value: 100%); format: functional
HT-29 [23] = experiment: Down-regulation of VEGFRA mRNA expression in human HT-29 cells assessed as VEGFRA mRNA level at 40 uM after 48 hrs by RT-qPCR analysis (reference value: 100%); format: functional
HT-29 [24] = experiment: Down-regulation of VEGFA protein expression in human HT-29 cells assessed as VEGFA protein level at 80 uM after 48 hrs by ELISA (reference value: 100%); format: functional
HT-29 [25] = experiment: Down-regulation of hTERT mRNA expression in human HT-29 cells assessed as hTERT mRNA level at 80 uM after 48 hrs by RT-qPCR analysis (reference value: 100%); format: functional
HT-29 [26] = experiment: Down-regulation of c-Myc mRNA expression in human HT-29 cells assessed as c-Myc mRNA level at 80 uM after 48 hrs by RT-qPCR analysis (reference value: 100%); format: functional
HT-29 [27] = experiment: Down-regulation of c-Myc protein expression in human HT-29 cells assessed as c-Myc protein level at 80 uM after 48 hrs by ELISA (reference value: 100%); format: functional
HT-29 [28] = experiment: Down-regulation of VEGFRA mRNA expression in human HT-29 cells assessed as VEGFRA mRNA level at 80 uM after 48 hrs by RT-qPCR analysis (reference value: 100%); format: functional

SMILES	pIC50 (HT-29 [1])	pIC50 (HEK293)	pIC50 (MCF7)	selectivity ratio [6]	selectivity ratio [8]	also measured
COc1ccc(-c2ncccn2)c(OC)c1	4.52	4.70	3.89	< 1	< 1	Activity (HT-29 [2]): 18%; Activity (HT-29 [3]): 63%; Activity (HT-29 [4]): 85%; Activity (HT-29 [5]): 48%; Activity (HT-29 [7]): 33%
Oc1ccccc1-c1ccccn1	3.71	3.41	5.15	57	2	Activity (HT-29 [9]): 65%; Activity (HT-29 [10]): 62%; Activity (HT-29 [11]): 36%; Activity (HT-29 [12]): 17%; Activity (HT-29 [13]): 31%
COc1cccc(N2CCOCC2)c1	3.80	< 3.40	4.00	5	3	Activity (HT-29 [14]): 50%; Activity (HT-29 [15]): 54%; Activity (HT-29 [16]): 100%; Activity (HT-29 [17]): 62%; Activity (HT-29 [18]): 72%
COc1ccc(-c2cncnc2)cc1OC	< 3.40	< 3.40	3.70	2		
COc1ccc(N2CCCC2)cc1	3.68	3.46	< 3.40	5	3	Activity (HT-29 [9]): 79%; Activity (HT-29 [10]): 100%; Activity (HT-29 [11]): 35%; Activity (HT-29 [12]): 79%; Activity (HT-29 [13]): 55%
COc1cccc(N2CCCC2)c1	3.51	3.68	4.29	3	3	
Oc1ccccc1-c1cncnc1	3.42	4.05	4.21	2	< 1	
Oc1ccccc1-c1ncccn1	< 3.40	< 3.40	4.39	14		
COc1ccc(-c2ccccn2)cc1OC	4.25	3.77	3.68	< 1	3	Activity (HT-29 [19]): 100%; Activity (HT-29 [20]): 48%; Activity (HT-29 [21]): 20%; Activity (HT-29 [7]): 8%; Activity (HT-29 [22]): 38%
c1ccc(N2CCCC2)cc1	< 3.40	< 3.40	< 3.40			
C=CCc1ccc(O)c(-c2ccc(O)c(CC=C)c2)c1 [HONOKIOL]	4.60	4.40	4.46	2	2	Activity (HT-29 [2]): 45%; Activity (HT-29 [3]): 53%; Activity (HT-29 [4]): 45%; Activity (HT-29 [5]): 55%; Activity (HT-29 [7]): 36%
COc1ccc(N2CCCCC2)cc1	3.92	4.00	4.15	2		
COc1ccc(-c2cccnc2)c(OC)c1	4.23	4.00	3.68	< 1	2	Activity (HT-29 [19]): 56%; Activity (HT-29 [20]): 52%; Activity (HT-29 [21]): 28%; Activity (HT-29 [23]): 32%; Activity (HT-29 [22]): 39%
COc1ccc(-c2ncccn2)cc1OC	< 3.40	< 3.40	4.32	> 9		
COc1ccc(N2CCOCC2)cc1	3.74	< 3.40	4.14	7	3	Activity (HT-29 [14]): 64%; Activity (HT-29 [15]): 66%; Activity (HT-29 [16]): 100%; Activity (HT-29 [17]): 96%; Activity (HT-29 [18]): 63%
COc1ccc(-c2cncnc2)c(OC)c1	< 3.40	< 3.40	< 3.40			
COc1ccc(-c2cccnc2)cc1OC	< 3.40	< 3.40	3.65	> 2		
c1ccc(-c2cncnc2)cc1	< 3.40	< 3.40	5.15	> 50		
COc1ccc(-c2ccccn2)c(OC)c1	< 3.40	3.63	< 3.40	< 1	< 1	
c1ccc(N2CCCCC2)cc1	3.92	< 3.40	3.80	4	5	Activity (HT-29 [24]): 75%; Activity (HT-29 [25]): 41%; Activity (HT-29 [26]): 52%; Activity (HT-29 [27]): 95%; Activity (HT-29 [28]): 89%
c1ccc(N2CCOCC2)cc1	3.62	< 3.40	3.92	5	3	Activity (HT-29 [14]): 79%; Activity (HT-29 [15]): 79%; Activity (HT-29 [16]): 95%; Activity (HT-29 [17]): 67%; Activity (HT-29 [18]): 57%
